Values after ≈ are worked out from the molar mass of the structure shown.
details: buffer; pH 7.4; 200.0 µM

Row | solubility kinetic [µg/mL] | SMILES
1 | 38.4 (≈ 144 µM) | COc1ccc(C2=CSC3=NCCN23)cc1Cl
2 | < 0.6 | CC(=Nc1ccccc1O)c1sc2ccccc2c1O
3 | 22.3 (≈ 72 µM) | CC(OC(=O)C1CCCCC1)C(=O)Nc1cccc(Cl)c1 (configuration not stated)
4 | > 59.6 | CC(NCC(=O)NCC(=O)Nc1ccc(F)cc1)c1cccc(C(F)(F)F)c1 (configuration not stated)
5 | 3.8 (≈ 12.9 µM) | Cc1nc2nc(-c3cccs3)[nH]c2cc1Br
6 | 3.5 (≈ 10.7 µM) | O=C1CN(C(=O)COC(=O)c2ccccc2O)c2ccccc2N1
7 | > 48.5 | Cc1c(C)n(Cc2ccccc2)c2ncnc(NCCN(C)C)c12
8 | 3.8 (≈ 13 µM) | Cc1cccc(NC(=S)Nc2cccc3ccccc23)c1
9 | > 41.5 | Cc1cc(C)cc(C(=O)NCCCN2CCOCC2)c1
10 | > 46.1 | Cc1ccc2nc(-c3ccccc3)c(CN3CCOCC3)n2c1
11 | > 45.7 | Cc1cc(C(=O)CCC(=O)Nc2ncccc2O)c(C)s1
12 | > 43.4 | NC(=O)C1CCN(C(=O)CNC(=O)c2ccccc2)CC1
13 | 35.9 (≈ 124 µM) | Cc1cccc(C(=O)NC(=S)N(C)C2CCCCC2)c1
14 | 3.7 (≈ 11.4 µM) | O=C(Cc1ccccc1)N1CCN(c2ccc([N+](=O)[O-])cc2)CC1
15 | < 0.7 | Cc1ccc(C(=O)NCc2ccc3c(c2)OCO3)cc1Cl
16 | 1.3 (≈ 4 µM) | COc1ccc(C(=O)CN2C(=O)c3ccccc3C2=O)c(OC)c1
17 | > 50.5 | Cc1ccc(S(=O)(=O)NC(=O)NC(C)c2ccc(F)cc2)cc1 (configuration not stated)
18 | 1.6 (≈ 4.74 µM) | Cc1sc2ncnc(SCC(=O)N(C(C)C)C(C)C)c2c1C
19 | 34.9 (≈ 146 µM) | O=C(c1cccc2ccccc12)N1CCCCC1
20 | 0.6 (≈ 1.85 µM) | O=C(CCCOc1ccc(Cl)cc1Cl)Nc1ccccn1
21 | 1.4 (≈ 3.21 µM) | COc1ccccc1OCC(=O)Nc1ccc(NC(=O)COc2ccccc2OC)cc1
22 | 0.2 (≈ 0.595 µM) | Nc1nc(Nc2ccccc2)nc(NCc2ccccc2)c1[N+](=O)[O-]

Row | solubility kinetic [µg/mL] | SMILES
23 | 39.2 (≈ 118 µM) | Cc1ccc(-c2csc(NC(=O)CN3CCOCC3)n2)cc1C
24 | < 0.6 | COC(=O)c1sc(SC)c(-c2ccon2)c1C
25 | > 40.1 | CN1CCN(C(=O)CNC(=O)c2cccs2)CC1
26 | 2.3 (≈ 7.81 µM) | CCOC(=O)C1=C(C)NC(SC)=C(C#N)C1CC(C)C (configuration not stated)
27 | 35.2 (≈ 146 µM) | O=C(NCCCN1CCCC1=O)C1CCCO1 (configuration not stated)
28 | 41.6 (≈ 140 µM) | Cc1cccc(C(=O)NCCCNC(=O)c2cccnc2)c1
29 | 15.9 (≈ 38.9 µM) | O=C1CCCC/C1=C\Nc1ccc(S(=O)(=O)Nc2cnc3ccccc3n2)cc1
30 | 41.8 (≈ 135 µM) | C=CCC(=O)N1CCCC(CO)(Cc2ccc(F)cc2F)C1 (configuration not stated)
31 | 7.9 (≈ 23.3 µM) | Cc1ccc(S(=O)(=O)C(C#N)=C2N(C)c3ccccc3N2C)cc1
32 | 41.5 (≈ 123 µM) | Cc1csc2c(NC3CCN(Cc4ccccc4)CC3)ncnc12
33 | 25.8 (≈ 88.5 µM) | CC(C)c1ccccc1OCCCCCN1CCOCC1
34 | 33.2 (≈ 135 µM) | Cc1cccc(OCC(O)Cn2ccnc2C)c1 (configuration not stated)
35 | 38.2 (≈ 110 µM) | CCOCCOC(=O)NCCCCCCNC(=O)OCCOCC
36 | 35 (≈ 118 µM) | O=C(NC(=S)Nc1ccc2nc[nH]c2c1)c1ccccc1
37 | 1.5 (≈ 4.53 µM) | COc1ccc(NC2(c3ccccc3)OC(=O)c3ccccc32)cc1 (configuration not stated)
38 | > 36.2 | COc1ccc(-c2nc3ncccc3n2O)cc1
39 | 8.1 (≈ 33 µM) | COc1ccccc1Nc1ccc([N+](=O)[O-])cn1
40 | > 47.3 | Cc1ccc(C(C)C)cc1OCC(=O)NCCCn1ccnc1
41 | 2.4 (≈ 7.38 µM) | COc1ccc(CCNC(=O)c2cnc(Cl)c(Cl)c2)cc1
42 | 39.6 (≈ 114 µM) | Cc1c(C(=O)CN2CCN(c3ccccc3)CC2)c2ccccc2n1C
43 | > 44.4 | O=C(OCC(=O)N1CCCCCC1)c1cccc(Cl)c1
44 | > 61 | Cc1ccc(S(=O)(=O)CCC(=O)OC(C)c2nnc(-c3cccs3)o2)cc1 (configuration not stated)

Row | solubility kinetic [µg/mL] | SMILES
45 | > 47.3 | COc1cccc(-c2noc(CCC(=O)NC3CCCC3)n2)c1
46 | 4.2 (≈ 12 µM) | Cc1sc2nc(COC(=O)c3c(F)cccc3F)[nH]c(=O)c2c1C
47 | > 43 | O=C(CSc1nncs1)NC(=O)NC1CCCC1
48 | 3 (≈ 9.11 µM) | COc1ccc2nc(NC(=O)c3ccccc3[N+](=O)[O-])sc2c1
49 | 13.3 (≈ 37.3 µM) | O=C(COC(=O)COc1ccc(Br)cc1)NC1CCCC1
50 | > 46.6 | Cc1cc(C)cc(NS(=O)(=O)c2csc(C(N)=O)c2)c1
51 | > 44.1 | CSc1ncc(C(=O)Nc2cccc(Cl)c2)c(C)n1
52 | 1.8 | CCc1ccc(CCOc2ccc(CC3SC(=O)NC3=O)cc2)nc1.Cl (configuration not stated)
53 | > 42.2 | C=CCNC(=O)COC(=O)CCC(=O)c1cccs1
54 | 1.6 (≈ 5.38 µM) | COc1ccc(/C=C/C(=O)c2cc3c(cc2N)OCO3)cc1
55 | 13.3 (≈ 59.3 µM) | Cc1cnc(NC(=O)CC2CCCC2)s1
56 | > 39.5 | Cn1ccnc1Sc1ccc(C=O)cc1[N+](=O)[O-]
57 | 12.8 (≈ 37.3 µM) | CC(C)(C)C(=O)NC1CC2CCCC(C1)N2C(=O)Nc1ccccc1 (configuration not stated)
58 | > 38.4 | Cc1onc(-c2ccccc2)c1C(=O)N1CCCC1
59 | 32.2 (≈ 105 µM) | CCOC(=O)N1CCN(CCC(=O)Nc2ccccc2)CC1
60 | > 38.9 | CC(=O)c1ccc(NC(=O)Cc2ccsc2)cc1
61 | 47.4 (≈ 141 µM) | Cc1ccc2nc(Cn3cc(C(F)(F)F)ccc3=O)cc(=O)n2c1
62 | 1.8 (≈ 5.38 µM) | CC1c2ccsc2CCN1C(=O)NC(=O)c1ccc(Cl)cc1 (configuration not stated)
63 | < 0.2 | COc1ccccc1C1CCN(c2ccc([N+](=O)[O-])cn2)CC1
64 | > 43.2 | COc1cc(C(=O)Nc2cccnc2)cc(OC)c1OC
65 | 33.3 (≈ 102 µM) | COc1ccc(OC(=O)C(C)N2C(=O)c3ccccc3C2=O)cc1 (configuration not stated)
66 | 0.8 (≈ 2.52 µM) | COc1ccc(-c2cc(-c3ccc(O)cc3)nc(N)c2C#N)cc1

Row | solubility kinetic [µg/mL] | SMILES
67 | 10 (≈ 28.2 µM) | CC(=O)N(/C=C1\SC(=S)N(c2ccccc2)C1=O)c1ccccc1
68 | 37.3 (≈ 144 µM) | N#C/C(=C\c1ccc(O)c(O)c1)C(=O)N1CCCC1
69 | 30 | CC#CC[N+](C)(CC#CC)CC(=O)c1ccccc1.[Br-]
70 | > 48.5 | O=C(COC(=O)c1nsc(Cl)c1Cl)NC1CCCC1
71 | 1.4 (≈ 4.76 µM) | COc1ccc(OC)c(Nc2cc(C)c3ccccc3n2)c1
72 | 12.6 (≈ 38 µM) | COC(=O)c1cc(OC(=O)c2ccc(=O)[nH]c2)cc(C(=O)OC)c1
73 | 21.8 (≈ 59.4 µM) | Cc1nc(NC(=O)COC(=O)CCc2ccccc2)c(Cl)cc1Cl
74 | > 44.4 | Cc1c(C(=O)C(=O)NCc2ccco2)c2ccccc2n1C
75 | 33.1 (≈ 112 µM) | CCOc1ccccc1NC(=O)N1CCc2ccccc2C1
76 | 40 (≈ 141 µM) | Cc1ccc(C(=O)NCCNC(=O)c2cccnc2)cc1
77 | 17.9 (≈ 64.5 µM) | N=C1S/C(=C\c2ccco2)C(=O)N1c1nccs1
78 | 35.5 (≈ 118 µM) | COc1ccccc1Nc1c2ccccc2nc2ccccc12
79 | > 44 | CC1CCc2sc(C(=O)NC(C)C3CCCO3)cc2C1 (configuration not stated)
80 | > 52.6 | COc1ccc(NC(=O)NS(=O)(=O)c2ccc(C)cc2)cc1OC
81 | > 47.3 | O=C(O)CN(C1CCCCC1)S(=O)(=O)c1ccc(F)cc1
82 | > 49.6 | Cc1cccc(NC(=O)CNC(=O)CSc2ncccn2)c1C
83 | 38.8 (≈ 129 µM) | COC(=O)c1cc(S(=O)(=O)N2CCCCCC2)cn1C
84 | < 0.4 | O=C1N=c2ccccc2=C1c1c(O)[nH]c2c(C(F)(F)F)cccc12
85 | 35.1 (≈ 120 µM) | S=C(NCc1ccc(Cl)cc1)NCc1ccccn1

Row | SMILES | solubility kinetic [µg/mL]
86 | COc1cc2c(cc1OC)C(C(=O)NC(C)C)C1CCCCN1C2=O (configuration not stated) | > 52
87 | Cc1ccccc1-n1c(C)nc2ccsc2c1=O.Cl | > 43.9
